Test results from ChEMBL document CHEMBL1201862, “PubChem BioAssay data set” (2004).
Calls of active or inactive are those of the source.

How the values were obtained:
Type in all cases: functional
[1] = molecular target: Vascular endothelial growth factor receptor 2 (Homo sapiens, UniProt P35968)
[2] = molecular target: Insulin-like growth factor 1 receptor (Homo sapiens, UniProt P08069); assay: Navigating the Kinome. Panel member name: IGF1R
[3] = molecular target: High affinity nerve growth factor receptor (Homo sapiens, UniProt P04629);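 further: NTRK1 tested as one member of a kinome-wide profiling panel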
[4] = molecular target: Tyrosine-protein kinase ABL1 (Homo sapiens, UniProt P00519)
[5] = molecular target: Tyrosine-protein kinase JAK3 (Homo sapiens, UniProt P52333)
Aurora kinase A = Aurora kinase A (Homo sapiens, UniProt O14965);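 further: value from the Navigating the Kinome kinase panel profiling, panel entry STK6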
[6] = molecular target: BDNF/NT-3 growth factors receptor (Homo sapiens, UniProt Q16620);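 further: NTRK2 measured as one member of a broad kinome-wide kinase profiling panel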
[7] = molecular target: Mitogen-activated protein kinase 9 (Homo sapiens, UniProt P45984);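 further: value from a kinome panel profiling assay, MAPK9 panel entry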
[8] = molecular target: Macrophage colony-stimulating factor 1 receptor (Homo sapiens, UniProt P07333);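 further: value comes from the Navigating the Kinome screening panel, CSF1R member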
[9] = molecular target: 5'-AMP-activated protein kinase catalytic subunit alpha-1 (Homo sapiens, UniProt Q13131)
[10] = molecular target: Serine/threonine-protein kinase pim-1 (Homo sapiens, UniProt P11309)
[11] = molecular target: Dual specificity tyrosine-phosphorylation-regulated kinase 1A (Homo sapiens, UniProt Q13627);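 further: measured against DYRK1A as one member of a broad kinome profiling panel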
[12] = molecular target: Glycogen synthase kinase-3 alpha (Homo sapiens, UniProt P49840);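 further: GSK3A result taken from a broad kinome-wide kinase panel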
[13] = molecular target: Serine/threonine-protein kinase 3 (Homo sapiens, UniProt Q13188);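 further: measured as one member of a kinome-wide kinase panel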
[14] = molecular target: Glycogen synthase kinase-3 beta (Homo sapiens, UniProt P49841);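 further: value comes from a broad kinome profiling panel, with GSK3B as the panel member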
Activin receptor type-1 = Activin receptor type-1 (Homo sapiens, UniProt Q04771); assay: Navigating the Kinome. Panel member name: ACVR1
[15] = molecular target: Mitogen-activated protein kinase 8 (Homo sapiens, UniProt P45983);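 further: value comes from one member of a kinome-wide kinase profiling panel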
[16] = molecular target: Tyrosine-protein kinase Fyn (Homo sapiens, UniProt P06241)
[17] = molecular target: Rho-associated protein kinase 1 (Homo sapiens, UniProt Q13464);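 further: measured within a broad kinome-wide panel profiling many kinases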
[18] = molecular target: cAMP-dependent protein kinase catalytic subunit alpha (Homo sapiens, UniProt P17612)
Aurora kinase B = Aurora kinase B (Homo sapiens, UniProt Q96GD4)
[19] = molecular target: Death-associated protein kinase 3 (Homo sapiens, UniProt O43293);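 further: measured as one member of a kinome-wide profiling panel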
[20] = molecular target: Ribosomal protein S6 kinase alpha-3 (Homo sapiens, UniProt P51812);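 further: measured within a kinome-wide profiling panel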
[21] = molecular target: Tyrosine-protein kinase JAK2 (Homo sapiens, UniProt O60674);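 further: JAK2 tested as one member of a kinase panel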
[22] = molecular target: T1, Receptor-type tyrosine-protein kinase FLT3 (Homo sapiens, UniProt P36888);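 further: FLT3 was tested as one member of a kinome-wide kinase panel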
T1 sequence (P36888 whole entry): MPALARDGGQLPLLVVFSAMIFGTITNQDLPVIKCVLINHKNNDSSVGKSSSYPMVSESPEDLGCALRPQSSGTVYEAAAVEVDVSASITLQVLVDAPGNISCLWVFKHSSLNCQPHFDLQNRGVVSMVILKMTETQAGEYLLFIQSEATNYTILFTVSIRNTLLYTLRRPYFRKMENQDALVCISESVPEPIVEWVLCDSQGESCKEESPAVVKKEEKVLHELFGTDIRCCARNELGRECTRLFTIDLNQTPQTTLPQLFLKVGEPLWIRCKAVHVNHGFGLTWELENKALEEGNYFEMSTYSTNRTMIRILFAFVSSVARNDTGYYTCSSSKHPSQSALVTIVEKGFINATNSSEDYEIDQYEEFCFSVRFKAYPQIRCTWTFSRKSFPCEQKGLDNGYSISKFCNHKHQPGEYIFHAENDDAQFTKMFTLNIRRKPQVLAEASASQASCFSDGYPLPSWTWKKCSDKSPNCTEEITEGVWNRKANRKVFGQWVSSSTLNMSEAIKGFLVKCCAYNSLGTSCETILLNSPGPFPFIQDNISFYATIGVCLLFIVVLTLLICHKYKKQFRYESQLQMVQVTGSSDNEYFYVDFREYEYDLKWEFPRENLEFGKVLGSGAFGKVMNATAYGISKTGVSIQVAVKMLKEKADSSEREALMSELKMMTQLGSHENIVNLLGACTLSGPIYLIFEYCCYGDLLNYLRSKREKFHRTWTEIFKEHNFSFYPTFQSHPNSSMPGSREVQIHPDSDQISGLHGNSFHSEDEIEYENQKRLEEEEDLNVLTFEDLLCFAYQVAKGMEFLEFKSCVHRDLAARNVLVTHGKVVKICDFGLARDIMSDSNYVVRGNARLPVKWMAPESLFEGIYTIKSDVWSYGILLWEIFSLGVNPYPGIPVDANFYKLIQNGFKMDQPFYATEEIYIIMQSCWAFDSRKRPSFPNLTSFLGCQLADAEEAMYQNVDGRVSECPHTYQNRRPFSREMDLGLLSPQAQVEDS

[23] = molecular target: Mitogen-activated protein kinase kinase kinase kinase 2 (Homo sapiens, UniProt Q12851);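 further: measured as one member of a kinome-wide kinase panel, with MAP4K2 as the panel entry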
[24] = molecular target: Vascular endothelial growth factor receptor 1 (Homo sapiens, UniProt P17948);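 further: measured within a kinome-wide profiling panel, FLT1 as the panel member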
[25] = molecular target: Mast/stem cell growth factor receptor Kit (Homo sapiens, UniProt P10721);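 further: KIT entry within a kinase panel assay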
[26] = molecular target: Fibroblast growth factor receptor 1 (Homo sapiens, UniProt P11362)
[27] = molecular target: Serine/threonine-protein kinase PAK 4 (Homo sapiens, UniProt O96013);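 further: value obtained within a kinome profiling panel in which PAK4 was one of the panel members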
[28] = molecular target: Calcium/calmodulin-dependent protein kinase type II subunit delta (Homo sapiens, UniProt Q13557)
[29] = molecular target: Cyclin-dependent kinase 2 (Homo sapiens, UniProt P24941);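 further: CDK2 measured as one member of a broad kinome profiling panel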
[30] = molecular target: Receptor tyrosine-protein kinase erbB-2 (Homo sapiens, UniProt P04626); assay: Navigating the Kinome. Panel member name: ERBB2

Chain of Macrophage colony-stimulating factor 1 receptor (P07333 whole entry): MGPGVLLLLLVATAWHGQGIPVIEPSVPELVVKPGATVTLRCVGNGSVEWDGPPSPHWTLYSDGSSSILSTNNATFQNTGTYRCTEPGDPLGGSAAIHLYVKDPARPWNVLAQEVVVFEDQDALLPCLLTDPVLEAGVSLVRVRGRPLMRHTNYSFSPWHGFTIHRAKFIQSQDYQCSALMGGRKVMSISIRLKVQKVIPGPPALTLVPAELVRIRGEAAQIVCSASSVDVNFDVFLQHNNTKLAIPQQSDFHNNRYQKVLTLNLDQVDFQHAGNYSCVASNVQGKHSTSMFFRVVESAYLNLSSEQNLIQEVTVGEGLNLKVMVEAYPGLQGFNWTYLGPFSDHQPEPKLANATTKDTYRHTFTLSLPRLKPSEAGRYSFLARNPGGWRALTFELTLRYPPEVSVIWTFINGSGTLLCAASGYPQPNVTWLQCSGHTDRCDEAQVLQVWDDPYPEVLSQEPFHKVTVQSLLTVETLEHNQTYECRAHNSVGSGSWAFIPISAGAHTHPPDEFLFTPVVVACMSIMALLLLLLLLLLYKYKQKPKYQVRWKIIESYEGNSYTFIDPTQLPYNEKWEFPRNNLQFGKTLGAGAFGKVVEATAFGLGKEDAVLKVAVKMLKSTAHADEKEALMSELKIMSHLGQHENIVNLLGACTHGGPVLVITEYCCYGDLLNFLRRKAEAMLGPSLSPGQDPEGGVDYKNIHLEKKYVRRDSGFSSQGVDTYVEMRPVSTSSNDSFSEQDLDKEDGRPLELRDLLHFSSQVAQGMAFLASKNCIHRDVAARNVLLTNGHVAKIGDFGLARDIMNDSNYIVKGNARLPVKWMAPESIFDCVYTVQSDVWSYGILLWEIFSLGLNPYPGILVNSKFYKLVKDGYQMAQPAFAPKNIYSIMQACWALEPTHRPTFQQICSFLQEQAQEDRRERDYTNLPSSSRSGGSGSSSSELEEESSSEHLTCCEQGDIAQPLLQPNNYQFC
Chain of Serine/threonine-protein kinase pim-1 (P11309 whole entry): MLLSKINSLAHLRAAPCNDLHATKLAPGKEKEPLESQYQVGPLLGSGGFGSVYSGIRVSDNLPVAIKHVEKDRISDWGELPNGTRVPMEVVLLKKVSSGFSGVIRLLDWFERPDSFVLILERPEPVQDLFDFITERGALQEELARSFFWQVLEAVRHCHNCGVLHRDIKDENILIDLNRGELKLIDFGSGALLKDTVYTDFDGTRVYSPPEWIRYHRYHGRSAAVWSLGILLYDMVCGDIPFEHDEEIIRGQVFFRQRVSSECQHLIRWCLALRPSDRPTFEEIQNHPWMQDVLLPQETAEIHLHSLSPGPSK
Chain of Insulin-like growth factor 1 receptor (P08069 31-736 limits assumed): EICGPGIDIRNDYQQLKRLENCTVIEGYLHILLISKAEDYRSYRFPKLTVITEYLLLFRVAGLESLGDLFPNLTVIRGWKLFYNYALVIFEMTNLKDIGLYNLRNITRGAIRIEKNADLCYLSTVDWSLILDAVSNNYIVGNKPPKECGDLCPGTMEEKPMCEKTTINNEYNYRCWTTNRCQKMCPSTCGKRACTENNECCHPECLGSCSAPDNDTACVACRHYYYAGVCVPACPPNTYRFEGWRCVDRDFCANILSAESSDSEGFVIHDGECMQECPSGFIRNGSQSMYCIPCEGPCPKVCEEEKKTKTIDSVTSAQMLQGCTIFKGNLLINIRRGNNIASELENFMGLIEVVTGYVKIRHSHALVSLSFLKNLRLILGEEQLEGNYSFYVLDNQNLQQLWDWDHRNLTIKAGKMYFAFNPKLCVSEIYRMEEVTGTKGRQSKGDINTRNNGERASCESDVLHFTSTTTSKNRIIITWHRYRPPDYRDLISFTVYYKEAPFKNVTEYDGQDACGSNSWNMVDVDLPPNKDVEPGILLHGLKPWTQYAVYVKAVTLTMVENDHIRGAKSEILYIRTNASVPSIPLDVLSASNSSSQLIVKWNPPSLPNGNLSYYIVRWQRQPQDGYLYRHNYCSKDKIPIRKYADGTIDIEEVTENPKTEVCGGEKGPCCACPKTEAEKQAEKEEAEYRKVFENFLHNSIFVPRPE
Chain of Insulin-like growth factor 1 receptor (P08069 741-1367 limits assumed): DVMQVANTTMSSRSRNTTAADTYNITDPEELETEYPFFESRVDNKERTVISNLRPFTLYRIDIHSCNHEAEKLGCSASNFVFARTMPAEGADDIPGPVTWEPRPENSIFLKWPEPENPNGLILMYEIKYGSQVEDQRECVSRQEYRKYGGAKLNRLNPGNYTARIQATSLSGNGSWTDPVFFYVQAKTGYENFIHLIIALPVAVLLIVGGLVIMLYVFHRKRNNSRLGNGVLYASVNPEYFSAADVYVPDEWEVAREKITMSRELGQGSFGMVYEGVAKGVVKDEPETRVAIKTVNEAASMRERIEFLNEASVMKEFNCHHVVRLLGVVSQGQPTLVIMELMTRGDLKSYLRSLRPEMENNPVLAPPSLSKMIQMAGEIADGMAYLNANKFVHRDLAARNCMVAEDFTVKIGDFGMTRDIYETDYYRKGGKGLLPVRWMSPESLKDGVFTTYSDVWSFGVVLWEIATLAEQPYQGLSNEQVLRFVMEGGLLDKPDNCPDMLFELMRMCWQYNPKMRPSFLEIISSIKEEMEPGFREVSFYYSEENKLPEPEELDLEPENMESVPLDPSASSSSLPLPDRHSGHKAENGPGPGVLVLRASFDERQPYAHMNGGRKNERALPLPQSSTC
Chain of Tyrosine-protein kinase ABL1 (P00519 whole entry): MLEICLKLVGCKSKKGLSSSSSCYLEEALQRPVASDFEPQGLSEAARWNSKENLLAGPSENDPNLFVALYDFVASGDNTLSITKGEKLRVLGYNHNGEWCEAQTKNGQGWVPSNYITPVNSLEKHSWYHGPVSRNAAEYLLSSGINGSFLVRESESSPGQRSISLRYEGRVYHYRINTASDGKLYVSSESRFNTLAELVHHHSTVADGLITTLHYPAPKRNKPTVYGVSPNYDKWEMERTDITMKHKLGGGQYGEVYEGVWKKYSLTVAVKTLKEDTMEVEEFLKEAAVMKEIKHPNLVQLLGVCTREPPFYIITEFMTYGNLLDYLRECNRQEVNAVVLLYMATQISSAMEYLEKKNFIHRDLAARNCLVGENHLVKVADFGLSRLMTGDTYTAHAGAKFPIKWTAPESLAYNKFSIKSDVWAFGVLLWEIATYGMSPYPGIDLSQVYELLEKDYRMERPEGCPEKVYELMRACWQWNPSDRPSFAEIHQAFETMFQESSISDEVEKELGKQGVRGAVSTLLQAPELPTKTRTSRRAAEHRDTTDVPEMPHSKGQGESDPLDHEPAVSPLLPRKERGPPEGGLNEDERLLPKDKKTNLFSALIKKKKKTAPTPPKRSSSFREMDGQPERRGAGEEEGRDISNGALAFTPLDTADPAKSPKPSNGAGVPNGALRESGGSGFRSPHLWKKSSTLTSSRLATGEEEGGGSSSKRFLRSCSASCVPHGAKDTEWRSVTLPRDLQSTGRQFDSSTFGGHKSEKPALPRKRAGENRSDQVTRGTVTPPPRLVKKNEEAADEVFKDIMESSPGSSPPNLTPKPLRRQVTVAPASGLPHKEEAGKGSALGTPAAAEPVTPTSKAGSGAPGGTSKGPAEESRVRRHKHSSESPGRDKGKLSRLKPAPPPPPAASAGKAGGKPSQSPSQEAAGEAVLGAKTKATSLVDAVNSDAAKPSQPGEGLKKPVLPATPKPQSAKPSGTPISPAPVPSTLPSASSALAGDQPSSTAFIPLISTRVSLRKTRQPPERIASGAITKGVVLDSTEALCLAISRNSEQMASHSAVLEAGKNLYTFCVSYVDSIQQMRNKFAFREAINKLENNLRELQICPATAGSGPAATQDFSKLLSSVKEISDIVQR
Chain of BDNF/NT-3 growth factors receptor (Q16620 whole entry): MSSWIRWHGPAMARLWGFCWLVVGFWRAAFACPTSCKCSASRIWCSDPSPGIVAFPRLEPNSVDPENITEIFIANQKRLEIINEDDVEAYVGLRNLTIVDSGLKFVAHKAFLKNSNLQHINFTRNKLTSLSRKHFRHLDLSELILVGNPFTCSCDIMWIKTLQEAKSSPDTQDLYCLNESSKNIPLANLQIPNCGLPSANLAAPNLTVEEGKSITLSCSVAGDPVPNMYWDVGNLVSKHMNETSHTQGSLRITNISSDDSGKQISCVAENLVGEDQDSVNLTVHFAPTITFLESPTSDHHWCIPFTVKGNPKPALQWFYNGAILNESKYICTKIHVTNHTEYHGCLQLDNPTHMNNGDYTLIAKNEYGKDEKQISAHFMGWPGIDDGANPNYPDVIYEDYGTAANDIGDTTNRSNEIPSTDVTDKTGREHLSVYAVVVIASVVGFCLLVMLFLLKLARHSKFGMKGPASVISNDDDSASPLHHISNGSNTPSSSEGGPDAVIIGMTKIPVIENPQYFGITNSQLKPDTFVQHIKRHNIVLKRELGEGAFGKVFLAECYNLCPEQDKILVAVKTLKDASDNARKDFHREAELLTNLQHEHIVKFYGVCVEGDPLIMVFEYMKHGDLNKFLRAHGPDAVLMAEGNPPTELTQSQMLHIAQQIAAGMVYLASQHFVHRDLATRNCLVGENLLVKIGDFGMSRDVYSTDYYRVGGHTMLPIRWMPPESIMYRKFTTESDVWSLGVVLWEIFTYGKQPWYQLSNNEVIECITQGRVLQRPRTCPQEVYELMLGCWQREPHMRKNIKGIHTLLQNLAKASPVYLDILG
Chain of Glycogen synthase kinase-3 alpha (P49840 whole entry): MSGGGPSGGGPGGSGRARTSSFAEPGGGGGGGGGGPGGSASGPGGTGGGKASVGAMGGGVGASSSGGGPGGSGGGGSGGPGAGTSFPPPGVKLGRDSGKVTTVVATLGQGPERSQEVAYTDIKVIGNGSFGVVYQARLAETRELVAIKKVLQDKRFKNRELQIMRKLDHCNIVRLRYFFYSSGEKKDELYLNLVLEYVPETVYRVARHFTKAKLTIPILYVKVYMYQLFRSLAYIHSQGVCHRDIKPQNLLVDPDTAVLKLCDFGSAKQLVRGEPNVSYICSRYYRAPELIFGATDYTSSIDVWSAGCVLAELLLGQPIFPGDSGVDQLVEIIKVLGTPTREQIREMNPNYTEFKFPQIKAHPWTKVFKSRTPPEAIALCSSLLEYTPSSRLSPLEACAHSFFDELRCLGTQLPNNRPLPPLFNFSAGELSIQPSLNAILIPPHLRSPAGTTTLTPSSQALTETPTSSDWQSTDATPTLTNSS

Structure (SMILES): CN(C)C1CCC(Nc2nc(Cl)cc(-c3c[nH]c4ncccc34)n2)CC1 (stereo unspecified)
- Ki [1]: 1260 nM (active)
- Ki [2]: > 2510 nM (inactive)
- Ki [3]: > 3160 nM (inactive)
- Ki [4]: > 3980 nM (inactive)
- Ki [5]: 1580 nM (active)
- Ki (Aurora kinase A): > 1580 nM (inactive)
- Ki [6]: 1580 nM (active)
- Ki [7]: > 3980 nM (inactive)
- Ki [8]: 501 nM (active)
- Ki [9]: 79.4 nM (active)
- Ki [10]: 251 nM (active)
- Ki [11]: 39.8 nM (active)
- Ki [12]: 794 nM (active)
- Ki [13]: 79.4 nM (active)
- Ki [14]: 1580 nM (active)
- Ki (Activin receptor type-1): 2510 nM (active)
- Ki [15]: 1000 nM (active)
- Ki [16]: > 6310 nM (inactive)
- Ki [17]: 1.26 nM (active)
- Ki [18]: 25.1 nM (active)
- Ki (Aurora kinase B): 794 nM (active)
- Ki [19]: 63.1 nM (active)
- Ki [20]: 63.1 nM (active)
- Ki [21]: 1260 nM (active)
- Ki [22]: 1580 nM (active)
- Ki [23]: 316 nM (active)
- Ki [24]: > 3980 nM (inactive)
- Ki [25]: > 3980 nM (inactive)
- Ki [26]: > 3980 nM (inactive)
- Ki [27]: 50.1 nM (active)
- Ki [28]: 1260 nM (active)

Structure (SMILES): NC(COc1cncc(-c2cc3ccncc3s2)c1)Cc1c[nH]c2ccccc12 (stereo unspecified)
- Ki [29]: 158 nM (active)
- Ki [1]: 794 nM (active)
- Ki [2]: > 1000 nM (inactive)
- Ki [3]: > 2510 nM (inactive)
- Ki [4]: > 631 nM (inactive)
- Ki [5]: > 1580 nM (inactive)
- Ki (Aurora kinase A): > 6310 nM (inactive)
- Ki [6]: > 5010 nM (inactive)
- Ki [7]: > 3980 nM (inactive)
- Ki [8]: > 2510 nM (inactive)
- Ki [9]: 316 nM (active)
- Ki [10]: 79.4 nM (active)
- Ki [11]: 3.98 nM (active)
- Ki [12]: 25.1 nM (active)
- Ki [13]: 794 nM (active)
- Ki [14]: 12.6 nM (active)
- Ki [15]: 2510 nM (active)
- Ki [16]: > 794 nM (inactive)
- Ki [17]: 20 nM (active)
- Ki [18]: 10 nM (active)
- Ki (Aurora kinase B): 794 nM (active)
- Ki [30]: > 1580 nM (inactive)
- Ki [19]: 63.1 nM (active)
- Ki [20]: 25.1 nM (active)
- Ki [21]: 1000 nM (active)
- Ki [22]: 251 nM (active)
- Ki [24]: 316 nM (active)
- Ki [25]: 631 nM (active)
- Ki [26]: 2510 nM (active)
- Ki [27]: 5010 nM (active)
